Results: ChEMBL document CHEMBL3885881, “DrugMatrix”

Species: Rattus norvegicus
Experiment: DrugMatrix - Regimen: Daily Repeat
Format: toxicity, organism-based, Sprague-Dawley
Parameters: regimen Daily Repeat, gender Male, age 6-8 weeks
Settings: in vivo, ip, route intraperitoneal, vehicle 100 % SALINE; for ABSOLUTE BASOPHIL / ABSOLUTE EOSINOPHIL / ABSOLUTE LYMPHOCYTE / ABSOLUTE MONOCYTE / ABSOLUTE SEGMENTED NEUTROPHIL / BASOPHIL / EOSINOPHIL / ERYTHROCYTE COUNT / HEMATOCRIT / HEMOGLOBIN / LEUKOCYTE COUNT / LYMPHOCYTE / MEAN CORPUSCULAR HEMOGLOBIN / MEAN CORPUSCULAR HEMOGLOBIN CONCENTRATION / MEAN CORPUSCULAR VOLUME / MONOCYTE / NEUTROPHIL / PLATELET COUNT: tissue Blood
[1] = 0 mg/kg, 120 h, dose level Control, time 5 day
[2] = 0 mg/kg, 120 h, tissue Plasma, dose level Control, time 5 day
[3] = 0 mg/kg, […], dose level Control, time 14 day
[4] = 0 mg/kg, […], dose level Control, time 28 day
[5] = 0 mg/kg, […], tissue Plasma, dose level Control, time 14 day
[6] = 0 mg/kg, […], tissue Plasma, dose level Control, time 28 day

Sequence: COBALTOUS CHLORIDE
- ABSOLUTE BASOPHIL [1]: 32 cells/µL
- ABSOLUTE EOSINOPHIL [1]: 110 cells/µL
- ABSOLUTE LYMPHOCYTE [1]: 6630 cells/µL
- ABSOLUTE MONOCYTE [1]: 140 cells/µL
- ABSOLUTE SEGMENTED NEUTROPHIL [1]: 1170 cells/µL
- BASOPHIL [1]: 0.38%
- EOSINOPHIL [1]: 1.28%
- ERYTHROCYTE COUNT [1]: 7.45 x10E6/uL
- HEMATOCRIT [1]: 45.74%
- HEMOGLOBIN [1]: 14.72 G/DL
- LEUKOCYTE COUNT [1]: 8.11 x10E3/uL
- LYMPHOCYTE [1]: 81.3%
- MEAN CORPUSCULAR HEMOGLOBIN [1]: 19.76 pg
- MEAN CORPUSCULAR HEMOGLOBIN CONCENTRATION [1]: 32.16 G/DL
- MEAN CORPUSCULAR VOLUME [1]: 61.38 fL
- MONOCYTE [1]: 1.76%
- NEUTROPHIL [1]: 14.9%
- PLATELET COUNT [1]: 1322.4 x10E3/uL
- ALANINE AMINOTRANSFERASE [2]: 25.8 u/L
- ALBUMIN [2]: 3.64 G/DL
- ASPARTATE AMINOTRANSFERASE [2]: 81.4 u/L
- BLOOD UREA NITROGEN [2]: 14.4 mg/dL
- CHOLESTEROL [2]: 69.2 mg/dL
- CREATINE PHOSPHOKINASE [2]: 303.2 u/L
- CREATININE [2]: 0.56 mg/dL
- GLUCOSE [2]: 125.4 mg/dL
- LACTATE DEHYDROGENASE [2]: 105.4 u/L
- LIPASE [2]: 22.4 u/L
- POTASSIUM [2]: 5.52 MEQ/L
- SODIUM [2]: 147 MEQ/L
- TOTAL BILIRUBIN [2]: 0.2 mg/dL
- TOTAL PROTEIN [2]: 6.1 G/DL
- URIC ACID [2]: 1.06 mg/dL
- ABSOLUTE BASOPHIL [3]: 130 cells/µL
- ABSOLUTE EOSINOPHIL [3]: 140 cells/µL
- ABSOLUTE LYMPHOCYTE [3]: 13500 cells/µL
- ABSOLUTE MONOCYTE [3]: 400 cells/µL
- ABSOLUTE SEGMENTED NEUTROPHIL [3]: 2330 cells/µL
- BASOPHIL [3]: 0.72%
- EOSINOPHIL [3]: 0.86%
- ERYTHROCYTE COUNT [3]: 7.74 x10E6/uL
- HEMATOCRIT [3]: 45.98%
- LEUKOCYTE COUNT [3]: 16.61 x10E3/uL
- LYMPHOCYTE [3]: 81.34%
- MEAN CORPUSCULAR HEMOGLOBIN [3]: 18 pg
- MEAN CORPUSCULAR HEMOGLOBIN CONCENTRATION [3]: 30.22 G/DL
- MEAN CORPUSCULAR VOLUME [3]: 59.4 fL
- MONOCYTE [3]: 2.46%
- NEUTROPHIL [3]: 14.14%
- PLATELET COUNT [3]: 1445.5 x10E3/uL
- ABSOLUTE BASOPHIL [4]: 91 cells/µL
- ABSOLUTE EOSINOPHIL [4]: 110 cells/µL
- ABSOLUTE LYMPHOCYTE [4]: 9910 cells/µL
- ABSOLUTE MONOCYTE [4]: 210 cells/µL
- ABSOLUTE SEGMENTED NEUTROPHIL [4]: 1560 cells/µL
- BASOPHIL [4]: 0.77%
- EOSINOPHIL [4]: 0.92%
- ERYTHROCYTE COUNT [4]: 8.21 x10E6/uL
- HEMATOCRIT [4]: 47.53%
- HEMOGLOBIN [4]: 15.65 G/DL
- LEUKOCYTE COUNT [4]: 11.91 x10E3/uL
- LYMPHOCYTE [4]: 83.34%
- MEAN CORPUSCULAR HEMOGLOBIN [4]: 19.07 pg
- MEAN CORPUSCULAR HEMOGLOBIN CONCENTRATION [4]: 32.93 G/DL
- MEAN CORPUSCULAR VOLUME [4]: 57.9 fL
- MONOCYTE [4]: 1.68%
- NEUTROPHIL [4]: 12.97%
- PLATELET COUNT [4]: 1323.8 x10E3/uL
- ALANINE AMINOTRANSFERASE [5]: 31.6 u/L
- ALBUMIN [5]: 3.66 G/DL
- ALKALINE PHOSPHATASE [5]: 228.6 u/L
- ASPARTATE AMINOTRANSFERASE [5]: 79.6 u/L
- BLOOD UREA NITROGEN [5]: 11.2 mg/dL
- CHLORIDE [5]: 107 MEQ/L
- CHOLESTEROL [5]: 57 mg/dL
- CREATININE [5]: 0.5 mg/dL
- GLUCOSE [5]: 124.4 mg/dL
- LACTATE DEHYDROGENASE [5]: 106.4 u/L
- LIPASE [5]: 24.4 u/L
- PHOSPHORUS [5]: 10.52 mg/dL
- POTASSIUM [5]: 6.34 MEQ/L
- SODIUM [5]: 149.2 MEQ/L
- TOTAL BILIRUBIN [5]: 0.2 mg/dL
- TOTAL PROTEIN [5]: 6.48 G/DL
- URIC ACID [5]: 0.94 mg/dL
- ALANINE AMINOTRANSFERASE [6]: 30 u/L
- ALBUMIN [6]: 3.71 G/DL
- ALKALINE PHOSPHATASE [6]: 186.8 u/L
- ASPARTATE AMINOTRANSFERASE [6]: 78.2 u/L
- BLOOD UREA NITROGEN [6]: 14.2 mg/dL
- CHOLESTEROL [6]: 44.9 mg/dL
- CREATINE PHOSPHOKINASE [6]: 334.3 u/L
- CREATININE [6]: 0.6 mg/dL
- GLUCOSE [6]: 147.2 mg/dL
- LACTATE DEHYDROGENASE [6]: 123.1 u/L
- LIPASE [6]: 9.6 u/L
- PHOSPHORUS [6]: 10.01 mg/dL
- POTASSIUM [6]: 6.57 MEQ/L
- SODIUM [6]: 149.5 MEQ/L
- TOTAL BILIRUBIN [6]: 0.21 mg/dL
- TOTAL PROTEIN [6]: 6.66 G/DL
- URIC ACID [6]: 1.26 mg/dL
- ABSOLUTE BASOPHIL (10 mg/kg, 120 h, dose level High, time 5 day): 46 cells/µL
